This is an account of results in article PMC6863902, “Functional and structural basis of E. coli enolase inhibition by SF2312: a mimic of the carbanion intermediate” (Scientific Reports, 2019).

Where “and” joins values, the source holds several entries; their conditions need not be identical. Equal entries are not always repeated. Where two headings read alike, the source gives them in different places.

Assay [1] addresses T1, recombinant E. coli enolase (Escherichia coli, UniProt P0A6P9).
T1 construct: made in house
Description: Differential scanning calorimetry thermal unfolding of enolase with inhibitors. In kind it is binding. The following applies: for protein thermal melting point (Tm): enolase 6 μM with ligand 60 μM, apo enolase 52.7 °C; for shift of thermal melting point: versus enolase without inhibitor (∼53 °C). On the procedure:
We used differential scanning calorimetry to analyze the direct in vitro binding of SF2312 and KSF to recombinant E. coli enolase (see Fig. 3). […] Upon overnight treatment with SF2312, the protein thermal melting point was ~82 °C, a shift of ∼29 °C.
The DCS experiment was performed as described previously. Prior to analysis, purified E. coli enolase was buffer exchanged into 20 mM HEPES (pH 7.0), 50 mM NaCl and 2 mM MgCl2. The concentrations of protein and ligand were adjusted to 6 μM and 60 μM, respectively. Protein samples with and without ligand were heated from 0–120 °C at 1 °C/min using a NanoDSC instrument (TA instruments). The samples were degassed for 15 minutes prior to injection into the calorimeter cell. The reference cell was filled with buffer for all runs. A pressure of 3 atm was applied to both cells during the run. The excess heat capacity scans for the protein transitions were obtained by subtracting a control scan of buffer versus buffer. The data were corrected for the difference in heat capacity between the initial and the final state by using a sigmoid baseline in the NanoAnalyze software (TA instruments) and a two-state transition model was used to determine the denaturation temperature (Tm) (Fig. 3).
A general note: DSC measures the heat that a sample takes up or gives off during a temperature scan.

Assay [2] concerns the target T1, recombinant E. coli enolase. In words: E. coli enolase enzymatic inhibition assay (PEP absorbance at 240 nm). The class given is biochemical. The following applies: for IC50: enolase 40 nM, 0.5 mM 2-PGA, 25 °C; for Ki: from IC50 by Cheng-Prusoff equation and KM. The method, then: To assess the relative affinity of SF2312 and KSF for enolase, the inhibitory constant, Ki, was determined from IC50 values using the Cheng-Prusoff equation and KM values.
The activity and inhibition of E. coli enolase described in this study was carried out using the procedure as we previously reported. Briefly, enolase activity was measured at 25 °C in the forward (formation of PEP from 2‐PGA) direction by direct monitoring of the increase in PEP absorbance at 240 nm, using a DU 640 spectrophotometer (Beckman). The standard assay contained 50 mM Tris pH 8.0, 0.1 M KCl, 0.5 mM 2-PGA and 1 mM MgSO4. The reactions were carried out at a final volume of 500 μL. Initial velocities came from the slopes of linear progress curves of 1 minute duration. One unit of enolase activity was defined as the amount of protein which catalyzes the formation of 1 μmole PEP from 2-PGA in 1 minute. The concentration of PEP was determined using a molar extinction coefficient (Ɛ240nm = 1400 M^−1 cm^1).
Inhibition of enolase activity by SF2312 and its analog, KSF was performed at a constant enolase concentration of 40 nM. The compounds, supplied in water, were preincubated with protein at concentrations ranging from 2 nM to 20 µM for 5 minutes in the assay buffer consisting of 50 mM Tris pH 8.0, 0.1 M KCl and 1 mM MgSO4. The reaction was initiated by the addition of 0.5 mM 2-PGA. The decrease in enolase activity upon inhibition was monitored at 5 second intervals for a period of 5 minutes at λ =240 nm. The average half maximal inhibitory concentrations (IC50) was calculated from initial rates of absorbance increase plotted as a function of ligand concentration using GraphPad Prism software (Fig. 2). Ki values were calculated using the Cheng-Prusoff equation from the experimental IC50 and Km values.

The test system of assay [3] is S. aureus ATCC 43300. In words: MIC, microdilution broth assay. The class given is cell-based. The conditions noted are these: Staphylococcus aureus. The text has this: (§1) To evaluate the activity of SF2312 against Gram-positive and Gram-negative bacteria, we have determined the minimal inhibitory concentration (MIC) for Escherichia coli ATCC 25922, Staphylococcus aureus ATCC […], Pseudomonas aeruginosa ATCC 27853, and Acinetobacter baumannii ATTC 19606 using the microdilution broth assay based on Clinical and Laboratory Standards Institute. Concentrations of SF2312 and the standard antibiotics tested were serially diluted to the following ranges: SF2312, 300 to 0.2 μg/mL; trimethoprim 10 to 0.01 μg/mL and fosfomycin, 20 to 0.040 μg/mL. For synergy studies, using the checkerboard method the following concentration range was used: fosfomycin 10 to 0.156 μg/mL and SF2312 100 to 0.05 μg/mL. The cation-adjusted Mueller-Hinton broth was supplemented with 25 μg/mL glucose-6-phosphate. Growth was monitored at Abs 600 nm. The MIC of each antimicrobial agent alone and in combination was defined as the lowest concentration that inhibited visible growth of the organism and were determined in duplicate.
(In broth dilution the organism is exposed to a series of concentrations in liquid medium.)

Assay [4] relates to E. coli ATCC 25922. In words: MIC, microdilution broth assay. In kind it is cell-based. The following applies: Escherichia coli.
Excerpt: as §1

For assay [5], the system named is E. coli ATCC 25922. In words: Checkerboard synergy of SF2312 with fosfomycin. In kind it is cell-based, Escherichia coli. The following applies: for MIC: Escherichia coli; for maximum drop of E. coli MIC when co-administered: SF2312 co-administered with fosfomycin. On the procedure:
It should be noted that the target of fosfomycin, UDP-N-acetylglucosamine enolpyruvyl transferase (MurA), acts immediately downstream of enolase utilizing PEP in the first step of peptidoglycan synthesis. Since targeting two sequential enzymes in the same metabolic pathway can be a powerful synergistic mechanism for two antibiotics, an evidence for synergy between SF2312 and fosfomycin was assessed by the checkerboard method. […] The observed synergy supports the notion that the antibacterial activity of SF2312 is due to the inhibition of enolase since, fosfomycin is known to have minimal to no effect on the enzymes utilizing PEP, such as enolase.
as §1
The definition of synergy used in these studies was the fractional inhibitory concentration (FIC) index, represented by the formula FIC= (MIC of fosfomycin in combination/MIC of fosfomycin alone) + (MIC of SF2312 in combination/MIC of the SF2312 alone). A calculated FIC index of less than 0.5 represented a synergistic effect (i.e., total effect greater than the sum of the individual antibiotic effects), a value between 0.5–2 represented an additive effect (i.e. no additional contribution from including the second antibiotic, compared with when the first antibiotic. A value greater than 2 represented an antagonistic effect (i.e., total effect less than the sum of the individual effects)[26].

Assay [6] deals with A. baumannii ATCC 19606. Description: MIC, microdilution broth assay. In kind it is cell-based, Acinetobacter baumannii.
Excerpt: as §1

The test system of assay [7] is P. aeruginosa ATCC 27853. In words: MIC, microdilution broth assay. In kind it is cell-based, Pseudomonas aeruginosa.
Excerpt: as §1

For assay [8], the system named is ENO1-rescued cells. The arrangement: method as in earlier work. The conditions noted are these: isogenic ENO1-rescued glioma cells; ref 5 (Leonard et al.); cited from earlier work.
The mark [9] stands for this setting: CAHM media with 25 μg/mL Glucose-6-Phosphate.

T1 sequence (P0A6P9 whole entry): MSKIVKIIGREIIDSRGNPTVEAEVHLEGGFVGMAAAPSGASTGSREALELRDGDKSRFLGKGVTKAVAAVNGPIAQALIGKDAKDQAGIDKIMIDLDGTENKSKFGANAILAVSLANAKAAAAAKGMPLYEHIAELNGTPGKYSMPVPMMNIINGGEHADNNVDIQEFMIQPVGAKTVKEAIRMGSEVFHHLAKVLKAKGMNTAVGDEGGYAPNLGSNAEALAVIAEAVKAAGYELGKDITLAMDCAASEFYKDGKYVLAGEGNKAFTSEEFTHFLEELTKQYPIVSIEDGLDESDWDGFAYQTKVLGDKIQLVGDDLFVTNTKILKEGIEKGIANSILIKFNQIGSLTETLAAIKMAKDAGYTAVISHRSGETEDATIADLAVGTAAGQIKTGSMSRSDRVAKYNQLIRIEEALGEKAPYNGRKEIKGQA

The term IC50 denotes the concentration that inhibits the measured activity by half. Usually Ki stands for a measure of affinity in units of concentration, obtained from inhibition or displacement. For `O=C1CC(P(=O)(O)O)C(=O)N1O` (stereo not drawn) [KSF, (1-hydroxy-2,5-dioxopyrrolidin-3-yl)phosphonic acid], in assay [1], the “protein thermal melting point (Tm)” value came out at 70.85 °C and the “shift of thermal melting point” value was roughly 18 °C. Besides, in assay [2], the IC50 was 7.67 µM and 7.7 µM; the Ki stood at 1.4 µM. For the same compound, in assay [2] (ratio of IC50 values), the “loss in activity between SF2312 and KSF” value is reported as “over 400 fold”.

As a reminder, the MIC is the lowest concentration that inhibits growth of the organism. The GI50 is the concentration giving 50% growth inhibition. On to `O=C1C(P(=O)(O)O)CC(O)N1O` (stereo not drawn) [SF2312, 3-Dihydroxyphosphoryl-1-,5-dihydroxy-2-pyrrolidone], for which the MIC is 20 µg/mL in assay [3] (ATCC43300, CAHM media with 25 μg/mL Glucose-6-Phosphate); 100 µg/mL in assay [3] (ATCC43300, CAHM media without Glucose-6-Phosphate); 100 µg/mL in assay [4] (ATCC25922, CAHM media with 25 μg/mL Glucose-6-Phosphate); 400 µg/mL in assay [4] (ATCC25922, CAHM media without Glucose-6-Phosphate); 100 µg/mL in assay [5] (ATCC25922, read-out: MIC alone); greater than 400 µg/mL in assay [6] (Acinetobacter baumannii, ATCC19606). Besides, the MIC in assay [6] (setting [9]) is greater than 400 µg/mL; in assay [7] (setting [9]), 50 µg/mL; in assay [7] (Pseudomonas aeruginosa, ATCC27853), 50 µg/mL. The “protein thermal melting point (Tm)” value in assay [1] was ~ 82 °C and 81.75 °C. Also, the “shift of thermal melting point” value in assay [1] was roughly 29 °C. Also, the IC50 in assay [2] was 0.0184 ± 0.00284 µM. Also, the Ki in assay [2] came out at 0.0034 µM. Besides, the “maximum drop of E. coli MIC when co-administered” value in assay [5] is given as 16 fold. In addition, the 50% growth inhibitory concentration (GI50) in assay [8] was greater than 200 µM.

Consider `C[C@@H]1O[C@@H]1P(=O)(O)O` [fosfomycin], for which the MIC in assay [3] (ATCC43300, CAHM media with 25 μg/mL Glucose-6-Phosphate, read-out: MIC) was 2.5 µg/mL; in assay [3] (ATCC43300, CAHM media without Glucose-6-Phosphate, read-out: MIC), 20 µg/mL; in assay [4] (ATCC25922, CAHM media with 25 μg/mL Glucose-6-Phosphate, read-out: MIC) it was 1.25 µg/mL; in assay [4] (ATCC25922, CAHM media without Glucose-6-Phosphate, read-out: MIC), greater than 10 µg/mL; in assay [5] (ATCC25922, checkerboard, partner agent 0 μg/mL, 25 μg/mL glucose-6-phosphate, read-out: MIC alone), 1.25 µg/mL; in assay [6] (Acinetobacter baumannii, ATCC19606, CAHM media without Glucose-6-Phosphate, read-out: MIC) it was greater than 20 µg/mL. The MIC is greater than 20 µg/mL in assay [6] (setting [9]); 5 µg/mL in assay [7] (setting [9]); 5 µg/mL in assay [7] (Pseudomonas aeruginosa, ATCC27853, CAHM media without Glucose-6-Phosphate, read-out: MIC). Also, the “maximum drop of E. coli MIC when co-administered” value in assay [5] is reported as 4 fold.
